# Patent US20090192149A1, “Imidazo Compounds” (SPEEDEL EXPERIMENTA AG, priority 2006, published 2009)
# pIC50: −log10 of the molar value.
# Molecular target: T1, recombinant human Cyp19 enzyme (Homo sapiens, UniProt P11511)
# T1 construct: purchased Becton Dickinson Biosciences, San Jose, Calif., USA
# T1 sequence (P11511 1-503): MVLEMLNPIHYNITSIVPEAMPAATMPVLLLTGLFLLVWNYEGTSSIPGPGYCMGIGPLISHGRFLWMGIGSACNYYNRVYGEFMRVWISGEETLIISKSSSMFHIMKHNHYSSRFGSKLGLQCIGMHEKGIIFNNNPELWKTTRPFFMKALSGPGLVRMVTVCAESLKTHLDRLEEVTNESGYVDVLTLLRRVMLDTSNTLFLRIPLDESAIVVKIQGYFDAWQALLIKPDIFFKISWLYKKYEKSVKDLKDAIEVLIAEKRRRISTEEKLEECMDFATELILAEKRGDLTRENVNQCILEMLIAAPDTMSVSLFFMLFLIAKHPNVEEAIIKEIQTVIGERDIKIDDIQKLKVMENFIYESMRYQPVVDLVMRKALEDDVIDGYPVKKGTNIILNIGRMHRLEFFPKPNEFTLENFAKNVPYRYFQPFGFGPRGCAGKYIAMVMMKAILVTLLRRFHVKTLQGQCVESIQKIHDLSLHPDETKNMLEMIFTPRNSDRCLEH
# Test: Cyp19/MFC high throughput inhibition kit (Becton Dickinson)
# Assay type: biochemical
# Settings: recombinant human Cyp19 supersomes, MFC substrate
# Protocol: A compound of formula (I) is to be understood as a compound having a specific configuration around the designated asymmetric carbon atom labelled “*”. If a synthesis method is used which leads to racemic compounds, the racemate resolution is carried out in accordance with conventional methods, such as via a chiral HPLC column. […] The aforementioned activity can, readily and as described below, be determined by using a commercial Cyp19 enzyme inhibition kit, preferably the Cyp19/methoxy-4-trifluoromethyl-coumarin (MFC) high throughput inhibition kit (Becton Dickinson Biosciences, San Jose, Calif., USA) as described hereafter. In the above-mentioned inhibition kit, compounds of the formula (I) show an inhibiting activity which is at least 10 times higher, but preferably 20 times higher, or more preferably 40 times higher, than the substances of the formula (I) with the opposite configuration around the asymmetric carbon atom labelled “*”. A higher inhibiting activity corresponds to a lower IC50 value.
# These effects are demonstrable in in vitro assay tests using cell-free and cellular systems. […] The Cyp19/Methoxy-4-trifluoromethyl-coumarin (MFC) high throughput inhibition kit (Becton Dickinson Biosciences, San Jose, Calif., USA), for example, is designed to screen for potential inhibitors of Cyp19 catalytic activity in a 96-well format. […]
row,Structure (SMILES),pIC50
1,N#Cc1ccc(C2COCc3cncn32)cc1 (centres unmarked) [antipode of 1],5.08
2,"N#Cc1ccc(C2COCc3cncn32)cc1 (single isomer, unassigned) [Example 1, 4-(5,6-Dihydro-8H-imidazo[5,1-c][1,4]oxazin-5-yl)benzonitrile]",8.32
